# Assay results reported in patent publication US10918628B2, “Treatment of synucleinopathies” (Deutsches Zentrum für Neurodegenerative Erkrankungen e. V. …, priority 2016, dated 2021).
# “And” between values parts separate entries of the source, which are not always exact repeats. Identical values can stand only once. Like-named read-outs stand apart in the source and are kept apart here.
# Legend:
# [1] = test system: α-syn overexpressing LUHMES cells; assay: LDH release into the culture medium as measure of α-syn-induced cell death; assay type: cell-based, human; settings: for effect of specific PDE inhibitors on α-syn mediated toxicity (LDH release): FIG. 2B-I
# [2] = test system: α-syn transduced LUHMES neurons; assay: High-throughput screening of FDA-approved drugs for neuroprotective efficacy against α-syn (propidium iodide / Hoechst 33342 survival); assay type: cell-based, human; settings: 3 μM and 10 μM, each in triplicates (six runs); six days after transduction
# α-syn = assay: Western blot quantification of α-syn bands; assay type: cell-based, human
# [3] = test system: α-syn overexpressing LUHMES cells; assay: Number of vital DAPI-stained nuclei (cell counts); assay type: cell-based, human; settings: 20 μM vinpocetine; α-syn with DMSO 57.0±3.4%
# Excerpt: (§1) FIG. 3 The PDE1 inhibitor vinpocetine reduces cell death and 37 kDa α-syn specimen. (A) Cell counts of untransduced control cells (Ctrl, white bar), solvent treated α-syn transduced cells (black bar) and α-syn transduced cells with treated with different concentrations of vinpocetine (dark grey bars) confirmed the protective effect of vinpocetine. […] (C) Quantification of the CellEvent™ signal in untransduced control cells (Ctrl, left bar), α-syn transduced cells treated with solvent (black bar) and vinpocetine treated α-syn transduced cells (dark grey bar). (D) Representative Western blot of control cells (Ctrl), α-syn transduced cells without or with treatment vinpocetine in different concentrations. (E-H) Quantification of specific α-syn positive Western blot bands. […] The density of the 37 kDa band positively correlated with the LDH release (r^2=0.99, P<0.001, I) and negatively correlated with the number of vital cells (r^2=0.96, P<0.01, J). *P<0.05, **P<0.01, ***<0.001, n.s. not significant, one-way ANOVA with Tukey's HSD post-hoc test. Data are mean±s.e.m.
# (§2) To validate the data from the LDH measurement, we determined the number of vital 4′,6-diamidino-2-phenylindole (DAPI)-stained nuclei in untransduced control cells and α-syn overexpressing cells treated without or with ascending concentrations of vinpocetine. […]
# caspase 3 and 7 = assay: CellEvent fluorescence signal for activated caspase 3 and 7; assay type: cell-based, human; settings: 20 μM vinpocetine; untransduced 1.0±0.2, α-syn with DMSO 74.8±5.7
# Excerpt: as §1, §2
# [4] = test system: TH+ neurons in the substantia nigra; assay: Stereological counting of TH+ cells in the substantia nigra after intranigral rAAV injection; assay type: in vivo, mice
# Experimental: FIG. 5 Vinpocetine protects against α-syn-induced toxicity in vivo. (A) Experimental time flow. Grey bar: time point of stereotactical injection. (B) Experimental groups. Mice were injected stereotactically with either NaCl (control injection) or rAAV to overexpress luciferase (rAAV-Luc, control protein), or alpha-synuclein (rAAV-α-syn). Animals of each injection group were then randomized with a 1:1 allocation to be treated with once daily intraperitoneal injections of either solvent or vinpocetine for a 9-week period. (C) Representative images of the substantia nigra, immunostained for tyrosine hydroxylase (TH, grey) to identify dopaminergic neurons in solvent treated mice. Circle: area of cell loss upon α-syn overexpression. (D) Quantification of TH^+ cells on the control (Ctrl) side and the stereotactic injection side of solvent treated mice. On the injection side there was a significant loss of TH^+ cells (dark grey bar, right panel) after α-syn overexpression. (E) Images of the TH-immunostained substantia nigra of vinpocetine treated mice of the three injection groups. […] (F) Quantification of the number of TH^+ cells on the control (Ctrl) side and the stereotactic injection side of vinpocetine treated mice. […] Data are mean±s.e.m. Scale bars: 1 mm.
# To investigate the neurotoxicity of α-syn in vivo, recombinant adeno-associated viral (rAAV) vectors were stereotactically injected into the substantia nigra of 11 weeks old mice to overexpress human wild type α-syn (rAAV-α-syn; FIG. 5A). The injection of rAAV vectors expressing luciferase (rAAV-luc) or injections with NaCl were used as controls for the toxicity of viral-mediated protein overexpression or the injection procedure itself. The treatment started one week after the intranigral injections. Therefore, the mice of each injection group (NaCl, rAAV-luc, and rAAV-α-syn) were randomized to be treated by daily intraperitoneal injections with 25 mg vinpocetine in solvent or the corresponding volume of solvent alone (FIG. 5B). All animals survived the injection procedure and treatment period. A subgroup of animals were not treated and sacrificed three weeks after injection to determine the transduction rate for rAAV-α-syn and rAAV-luc (each n=3).
# To quantify the extent of neurodegeneration induced by rAAV mediated overexpression of α-syn, tyrosine-hydroxylase (TH) stainings of the substantia nigra and the striatum were performed. The number of TH^+ cells was determined by stereological counting. In the group of NaCl injected mice with solvent treatment, there was no significant difference in the number of TH^+ neurons between the injected (4108±54 cells) and the non-injected side (4168±92 cells, P=0.99, FIG. 5C, upper panel and FIG. 5D, blank columns).
# To determine the efficacy of vinpocetine in vivo, the number of TH^+ cells in the substantia nigra was determined in mice treated with daily injections of 25 mg/kg vinpocetine in solvent or the corresponding amount of solvent alone.
# microglial marker ibal = settings: mouse, in vivo
# [5] = vinpocetine treated mice, daily intraperitoneal 25 mg/kg
molecule,measurement,setting,value
Cc1ccc([N+](=O)[O-])cc1S(=O)(=O)N(C)C [BRL 50481],effect of specific PDE inhibitors on α-syn mediated toxicity (LDH release),[1]; different concentrations,did not have an effect
OCCN(CCO)c1nc(N2CCCCC2)c2nc(N(CCO)CCO)nc(N3CCCCC3)c2n1 [dipyridamole],protective hit (Z-score above 2.5) in cell survival screening,[2],protective in all six runs
same,LDH level compared to α-syn overexpressing LUHMES cells with DMSO treatment,[1]; Five μM dipyridamole,77.0±5.1%
COC(=O)C1=C(C)NC(C)=C(C(=O)OC(C)C)C1c1cccc2nonc12 (stereo not drawn) [isradipine],effect of cation channel blockers on α-syn mediated toxicity (LDH release),"[1]; different concentrations, FIG. 4A,B",did not affect
Cc1[nH]c(=O)c(C#N)cc1-c1ccncc1 [Milrinone],effect of specific PDE inhibitors on α-syn mediated toxicity (LDH release),[1]; different concentrations,did not have an effect
C[C@H](Cc1nc2c(cnn2-c2ccccc2Cl)c(=O)[nH]1)C(F)(F)F [Bay 73-6691],effect of specific PDE inhibitors on α-syn mediated toxicity (LDH release),[1]; different concentrations,did not have an effect
Nc1nc(-c2nn(Cc3ccccc3F)c3ncccc23)ncc1C1CC1 [BAY41-2272],relative LDH release compared to α-syn overexpressing control cells,[1]; 1 μM BAY41-2272,56.2±7.8%
same,"change of 37 kDa α-Syn band (Western blot, C20 antibody)","α-syn; α-Syn-transduced neurons with forskolin or BAY41-2272, FIG. 4d,e",reduction of a 37 kDa α-Syn band
CCCc1nn(C)c2c(=O)[nH]c(-c3cc(S(=O)(=O)N4CCN(C)CC4)ccc3OCC)nc12 [Sildenafil],effect of specific PDE inhibitors on α-syn mediated toxicity (LDH release),[1]; different concentrations,did not have an effect
COc1ccc(C2CNC(=O)C2)cc1OC1CCCC1 (stereo not drawn) [Rolipram],effect of specific PDE inhibitors on α-syn mediated toxicity (LDH release),[1]; different concentrations,did not have an effect
vinpocetine,effect of specific PDE inhibitors on α-syn mediated toxicity (LDH release),[1]; different concentrations,significant protection in a dose dependent manner
same,cells survived (cell number compared to untransduced controls),[3],85.1±4.1%
same,relative CellEvent signal (activated caspase 3 and 7),caspase 3 and 7,25.6±2.1
same,reduction of density of 37 kDa α-syn band compared to α-syn overexpressing cells treated with DMSO,α-syn; 20 μM vinpocetine,52.2±6.6%
same,α-syn monomer band compared to untransduced controls,"α-syn; 20 μM vinpocetine, DMSO treated α-syn cells 3.4±0.1-fold",5.1±0.4 fold
same,change in other α-syn bands,"α-syn; vinpocetine treatment, FIG. 3G,H",no change
same,difference in number of TH+ neurons between solvent and vinpocetine treatment,[4]; NaCl and rAAV-luc injection groups,no difference
same,number of TH+ cells in the substantia nigra on the rAAV-α-syn injection side,"[4]; mice, daily intraperitoneal 25 mg/kg vinpocetine, 9-week period, solvent treated 2915±79",3870±141 cells and 3870±14 cells
same,protection against α-syn-induced cell death of TH+ neurons in vivo,"[4]; rAAV-α-syn injected mice, vinpocetine once daily intraperitoneal, 9 weeks, FIG. 5F",completely prevented α-syn-induced cell death
same,"number of TH+ cells on the injection side, NaCl injected mice",[4]; [5],3984±160 cells
same,"number of TH+ cells on the injection side, rAAV-luc injected mice",[4]; [5],3860±138 cells
same,"ibal-immunoreactivity, vinpocetine versus solvent treatment",microglial marker ibal,nor any differences between vinpocetine and solvent treatment
COc1ccc(Cc2nn3c([C@@H](CCCc4ccccc4)[C@@H](C)O)nc(C)c3c(=O)[nH]2)cc1OC [Bay60-7550],effect of specific PDE inhibitors on α-syn mediated toxicity (LDH release),[1]; different concentrations,did not have an effect
NC1=N[C@H](O)[C@H]2[C@H]3O[C@]4(O)O[C@@H]([C@@H](O)[C@@]2(N1)[C@@H]4O)[C@]3(O)CO [tetrodotoxin],effect of cation channel blockers on α-syn mediated toxicity (LDH release),[1],did not affect
